Experiments:
Format in all cases: functional
Candida albicans [1] = test: Synergistic antifungal activity against fluconazole-resistant Candida albicans 904 assessed as inhibition of fungal growth in presence of fluconazole by checker board microdilution assay; further: test concentration or dose not given here
Candida albicans [2] = test: Synergistic antifungal activity against fluconazole-resistant Candida albicans 100 assessed as inhibition of fungal growth in presence of fluconazole by checker board microdilution assay
Candida albicans [3] = test: Synergistic antifungal activity against fluconazole-resistant Candida albicans 103 assessed as inhibition of fungal growth in presence of fluconazole by checker board microdilution assay
Candida albicans [4] = test: Synergistic antifungal activity against fluconazole-resistant Candida albicans 901 assessed as inhibition of fungal growth in presence of fluconazole by checker board microdilution assay
Candida albicans [5] = test: Synergistic antifungal activity against fluconazole-resistant Candida albicans 311 assessed as inhibition of fungal growth in presence of fluconazole by checker board microdilution assay; further: test concentration or dose not given here
Candida albicans [6] = test: Synergistic antifungal activity against fluconazole-resistant Candida albicans 632 assessed as inhibition of fungal growth in presence of fluconazole by checker board microdilution assay

With CCNC(=O)c1noc(-c2cc(-c3ccc(C)cc3)c(O)cc2O)c1-c1ccc(CN2CCN(C)CC2)cc1 the MIC80 (Candida albicans [1]) was greater than 64 µg/mL, the MIC80 (Candida albicans [2]) was greater than 64 µg/mL and the MIC80 (Candida albicans [3]) was greater than 64 µg/mL. For the same compound, the MIC80 (Candida albicans [4]) was 64 µg/mL, the MIC80 (Candida albicans [5]) was greater than 64 µg/mL and the MIC80 (Candida albicans [6]) was greater than 64 µg/mL.

Cc1ccc(-c2cc(-c3onc(C(=O)N4CCC4)c3-c3ccc(CN4CCCCC4)cc3)c(O)cc2O)cc1 gave an MIC80 (Candida albicans [1]) greater than 64 µg/mL, an MIC80 (Candida albicans [2]) greater than 64 µg/mL and an MIC80 (Candida albicans [3]) greater than 64 µg/mL. It also gave an MIC80 (Candida albicans [4]) of 16 µg/mL, an MIC80 (Candida albicans [5]) of 16 µg/mL and an MIC80 (Candida albicans [6]) greater than 64 µg/mL.

CCNC(=O)c1noc(-c2cc(-c3ccc(C)cc3)c(O)cc2O)c1-c1ccc(CN2CC(C)CC(C)C2)cc1 (stereo not given) gave an MIC80 (Candida albicans [1]) of 1 µg/mL, an MIC80 (Candida albicans [2]) of 4 µg/mL and an MIC80 (Candida albicans [3]) of 16 µg/mL. It also gave an MIC80 (Candida albicans [4]) of 0.5 µg/mL, an MIC80 (Candida albicans [5]) of 2 µg/mL and an MIC80 (Candida albicans [6]) of 2 µg/mL.

In the case of Cc1ccc(-c2cc(-c3onc(C(=O)NC4CCC4)c3-c3ccc(CN4CCOCC4)cc3)c(O)cc2O)cc1, the MIC80 (Candida albicans [1]) is reported as 4 µg/mL, the MIC80 (Candida albicans [2]) is reported as 16 µg/mL and the MIC80 (Candida albicans [3]) is reported as 32 µg/mL. The MIC80 (Candida albicans [4]) was 8 µg/mL, the MIC80 (Candida albicans [5]) was greater than 64 µg/mL and the MIC80 (Candida albicans [6]) was 64 µg/mL.

Work on CCCNC(=O)c1noc(-c2cc(-c3ccc(C)cc3)c(O)cc2O)c1-c1ccc(CN2CCCCC2)cc1 yielded an MIC80 (Candida albicans [1]) of 2 µg/mL, an MIC80 (Candida albicans [2]) of 8 µg/mL and an MIC80 (Candida albicans [3]) of 4 µg/mL. For the same compound, the MIC80 (Candida albicans [4]) was 4 µg/mL, the MIC80 (Candida albicans [5]) was 8 µg/mL and the MIC80 (Candida albicans [6]) was 4 µg/mL.

In the case of CCNC(=O)c1noc(-c2cc(-c3ccc(CC)cc3)c(O)cc2O)c1-c1ccc(CN2CCOCC2)cc1, the MIC80 (Candida albicans [1]) is reported as 0.5 µg/mL, the MIC80 (Candida albicans [2]) is reported as 4 µg/mL and the MIC80 (Candida albicans [3]) is reported as 2 µg/mL. It also gave an MIC80 (Candida albicans [4]) of 0.5 µg/mL, an MIC80 (Candida albicans [5]) of 1 µg/mL and an MIC80 (Candida albicans [6]) of 2 µg/mL.

With CCNC(=O)c1noc(-c2cc(-c3ccc(Cl)cc3)c(O)cc2O)c1-c1ccc(CN2CCOCC2)cc1 the MIC80 (Candida albicans [1]) was 0.5 µg/mL, the MIC80 (Candida albicans [2]) was 4 µg/mL and the MIC80 (Candida albicans [3]) was 8 µg/mL. It also gave an MIC80 (Candida albicans [4]) of 0.5 µg/mL, an MIC80 (Candida albicans [5]) of 16 µg/mL and an MIC80 (Candida albicans [6]) of 8 µg/mL.

In the case of Cc1ccc(-c2cc(-c3onc(C(=O)NC(C)C)c3-c3ccc(CN4CCOCC4)cc3)c(O)cc2O)cc1, the MIC80 (Candida albicans [1]) is reported as 4 µg/mL, the MIC80 (Candida albicans [2]) is reported as 16 µg/mL and the MIC80 (Candida albicans [3]) is reported as 64 µg/mL. The MIC80 (Candida albicans [4]) was 8 µg/mL, the MIC80 (Candida albicans [5]) was 64 µg/mL and the MIC80 (Candida albicans [6]) was 8 µg/mL.

In the case of CCNC(=O)c1noc(-c2cc(-c3ccc(OC)cc3)c(O)cc2O)c1-c1ccc(CN2CCOCC2)cc1, the MIC80 (Candida albicans [1]) is reported as 4 µg/mL, the MIC80 (Candida albicans [2]) is reported as 8 µg/mL and the MIC80 (Candida albicans [3]) is reported as 8 µg/mL. For the same compound, the MIC80 (Candida albicans [4]) was 8 µg/mL, the MIC80 (Candida albicans [5]) was 16 µg/mL and the MIC80 (Candida albicans [6]) was 16 µg/mL.

Work on CCNC(=O)c1noc(-c2cc(-c3ccc(C)cc3)c(O)cc2O)c1-c1ccc(CN2CCC(N3CCOCC3)CC2)cc1 yielded an MIC80 (Candida albicans [1]) greater than 64 µg/mL, an MIC80 (Candida albicans [2]) greater than 64 µg/mL and an MIC80 (Candida albicans [3]) greater than 64 µg/mL. For the same compound, the MIC80 (Candida albicans [4]) was greater than 64 µg/mL, the MIC80 (Candida albicans [5]) was greater than 64 µg/mL and the MIC80 (Candida albicans [6]) was greater than 64 µg/mL.

In the case of CCN(CC)C(=O)c1noc(-c2cc(-c3ccc(C)cc3)c(O)cc2O)c1-c1ccc(CN2CCCCC2)cc1, the MIC80 (Candida albicans [1]) is reported as 8 µg/mL, the MIC80 (Candida albicans [2]) is reported as 4 µg/mL and the MIC80 (Candida albicans [3]) is reported as 2 µg/mL. For the same compound, the MIC80 (Candida albicans [4]) was 4 µg/mL, the MIC80 (Candida albicans [5]) was 4 µg/mL and the MIC80 (Candida albicans [6]) was 4 µg/mL.

CCNC(=O)c1noc(-c2cc(-c3ccc(C)cc3)c(O)cc2O)c1-c1ccc(CN2CCCC2)cc1 showed an MIC80 (Candida albicans [1]) of 2 µg/mL, an MIC80 (Candida albicans [2]) of 2 µg/mL and an MIC80 (Candida albicans [3]) of 4 µg/mL. The MIC80 (Candida albicans [4]) was 1 µg/mL, the MIC80 (Candida albicans [5]) was 4 µg/mL and the MIC80 (Candida albicans [6]) was 4 µg/mL.

Cc1ccc(-c2cc(-c3onc(C(=O)NC4CC4)c3-c3ccc(CN4CCOCC4)cc3)c(O)cc2O)cc1 showed an MIC80 (Candida albicans [1]) of 4 µg/mL, an MIC80 (Candida albicans [2]) of 4 µg/mL and an MIC80 (Candida albicans [3]) of 16 µg/mL. The MIC80 (Candida albicans [4]) was 8 µg/mL, the MIC80 (Candida albicans [5]) was greater than 64 µg/mL and the MIC80 (Candida albicans [6]) was 32 µg/mL.

Work on Cc1ccc(-c2cc(-c3onc(C(=O)N(C)C)c3-c3ccc(CN4CCOCC4)cc3)c(O)cc2O)cc1 yielded an MIC80 (Candida albicans [1]) of 8 µg/mL, an MIC80 (Candida albicans [2]) of 32 µg/mL and an MIC80 (Candida albicans [3]) of 16 µg/mL. The MIC80 (Candida albicans [4]) was 4 µg/mL, the MIC80 (Candida albicans [5]) was 32 µg/mL and the MIC80 (Candida albicans [6]) was 8 µg/mL.

CCNC(=O)c1noc(-c2cc(-c3cccc(C(C)(C)C)c3)c(O)cc2O)c1-c1ccc(CN2CCOCC2)cc1 gave an MIC80 (Candida albicans [1]) greater than 64 µg/mL, an MIC80 (Candida albicans [2]) greater than 64 µg/mL and an MIC80 (Candida albicans [3]) greater than 64 µg/mL. It also gave an MIC80 (Candida albicans [4]) greater than 64 µg/mL, an MIC80 (Candida albicans [5]) greater than 64 µg/mL and an MIC80 (Candida albicans [6]) greater than 64 µg/mL.

Compound CCNC(=O)c1noc(-c2cc(-c3ccc(C(F)(F)F)cc3)c(O)cc2O)c1-c1ccc(CN2CCOCC2)cc1 has an MIC80 (Candida albicans [1]) greater than 64 µg/mL, an MIC80 (Candida albicans [2]) greater than 64 µg/mL and an MIC80 (Candida albicans [3]) greater than 64 µg/mL. The MIC80 (Candida albicans [4]) was greater than 64 µg/mL, the MIC80 (Candida albicans [5]) was greater than 64 µg/mL and the MIC80 (Candida albicans [6]) was greater than 64 µg/mL.

CCNC(=O)c1noc(-c2cc(-c3ccccc3C(C)C)c(O)cc2O)c1-c1ccc(CN2CCOCC2)cc1 showed an MIC80 (Candida albicans [1]) greater than 64 µg/mL, an MIC80 (Candida albicans [2]) greater than 64 µg/mL and an MIC80 (Candida albicans [3]) greater than 64 µg/mL. For the same compound, the MIC80 (Candida albicans [4]) was greater than 64 µg/mL, the MIC80 (Candida albicans [5]) was greater than 64 µg/mL and the MIC80 (Candida albicans [6]) was greater than 64 µg/mL.

Cc1ccc(-c2cc(-c3onc(C(=O)N4CCCC4)c3-c3ccc(CN4CCOCC4)cc3)c(O)cc2O)cc1 showed an MIC80 (Candida albicans [1]) greater than 64 µg/mL, an MIC80 (Candida albicans [2]) greater than 64 µg/mL and an MIC80 (Candida albicans [3]) greater than 64 µg/mL. It also gave an MIC80 (Candida albicans [4]) greater than 64 µg/mL, an MIC80 (Candida albicans [5]) greater than 64 µg/mL and an MIC80 (Candida albicans [6]) greater than 64 µg/mL.

With Cc1ccc(-c2cc(-c3onc(C(=O)NC(C)C)c3-c3ccc(CN4CCCCC4)cc3)c(O)cc2O)cc1 the MIC80 (Candida albicans [1]) was 2 µg/mL, the MIC80 (Candida albicans [2]) was 8 µg/mL and the MIC80 (Candida albicans [3]) was 4 µg/mL. For the same compound, the MIC80 (Candida albicans [4]) was 4 µg/mL, the MIC80 (Candida albicans [5]) was 8 µg/mL and the MIC80 (Candida albicans [6]) was 2 µg/mL.

CCNC(=O)c1noc(-c2cc(-c3ccc(C)cc3)c(O)cc2O)c1-c1ccc(CN2CCC(N(C)C)CC2)cc1 showed an MIC80 (Candida albicans [1]) of 4 µg/mL, an MIC80 (Candida albicans [2]) of 64 µg/mL and an MIC80 (Candida albicans [3]) of 4 µg/mL. It also gave an MIC80 (Candida albicans [4]) of 16 µg/mL, an MIC80 (Candida albicans [5]) of 2 µg/mL and an MIC80 (Candida albicans [6]) of 64 µg/mL.

From ChEMBL document CHEMBL5154804, “Species-Selective Targeting of Fungal Hsp90: Design, Synthesis, and Evaluation of Novel 4,5-Diarylisoxazole Derivatives for the Combination Treatment of Azole-Resistant Candidiasis” (J Med Chem, 2022)
